Experiment [1] deals with T1, FatA (AtFatA) (Arabidopsis thaliana, UniProt Q42561).
T1 construct: residues 1-74 (chloroplast transit peptide) removed; noncleavable C-terminal His6 tag; codon-optimised gene in pET-24a(+), E. coli BL21(DE3); dimer by native mass spectrometry
T1 sequence (Q42561 75-362): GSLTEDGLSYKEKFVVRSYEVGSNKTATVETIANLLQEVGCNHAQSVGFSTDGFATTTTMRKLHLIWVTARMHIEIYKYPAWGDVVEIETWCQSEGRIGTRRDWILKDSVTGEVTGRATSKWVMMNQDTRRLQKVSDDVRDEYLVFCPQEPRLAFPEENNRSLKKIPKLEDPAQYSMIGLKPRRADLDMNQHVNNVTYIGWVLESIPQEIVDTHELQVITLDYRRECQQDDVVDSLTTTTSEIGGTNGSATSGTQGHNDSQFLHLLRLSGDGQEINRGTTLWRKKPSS
Nature of the experiment: fluorescent CPM detection of CoA released from oleoyl-CoA. Type of experiment: biochemical.

In experiment [2] the target is T1, FatA (AtFatA). Nature of the experiment: X-ray crystal structure, fragment soak. As to conditions: crystal soak […], […] DMSO, pH […]; herbicide binding site.
Experiment [3] addresses T1, FatA (AtFatA). The experiment can be described thus: SPR, steady-state […] fit, His-captured and amine-coupled FatA. Type of experiment: binding. Background: Surface plasmon resonance follows binding to a sensor surface in real time, without labels.
For experiment [4], the target named is T1, FatA (AtFatA). The experiment can be described thus: biochemical. The note with it: for kon: read-out: ka (1/Ms), kinetic fit; for koff: read-out: kd (1/s), kinetic fit; for ka / kd: kinetic fit; for ka: ka (1/Ms); for kd: kd (1/s). More on the design: SPR (Biacore 8K, immobilized His-tagged FatA), steady-state affinity and 1:1 kinetic fits, 20 °C. From the text: The analogues were used to explore the binding capabilities of the herbicide pocket as well as tolerance to heterocyclic ring size. […] The resulting 60 compounds were either purchased from Enamine REAL or synthesized in‐house. […] Chemical structures of all x1816 analogues tested are available in Data S1. Binding data can be found in Data S2.

In experiment [5] the target is T1, FatA (AtFatA). Nature of the experiment: biochemical. The arrangement: SPR (Biacore 8K), His-captured FatA; steady-state affinity KD and kinetic fit (1:1 model). The note with it: steady-state affinity fit. On the procedure: FatA was immobilized on an NTA sensor chip (GE Healthcare, Chicago, IL, USA) using a Biacore 8K, captured via His‐tag and simultaneous amine coupling on EDC/NHS‐activated carboxyl groups (Immobilization buffer: 25 mM HEPES pH 7.4, 150 mM NaCl, 1 mM TCEP, 0.05% Tween 20). Equilibrium binding experiments were performed at 20 °C using a Biacore 8K instrument (GE Healthcare) with 25 mM HEPES pH 7.4, 150 mM NaCl, 1 mM TCEP, 0.05% Tween 20 and 2% DMSO as running buffer for compound testing. Compounds were injected over the chip in two‐fold dilution series either in multi‐cycle mode (60s/180s association/dissociation time) or single‐cycle kinetic mode (160 s/1800s association/dissociation time). Indicative K D values were obtained by steady‐state affinity fitting to a 1:1 binding site model.

Where “and” joins values, the source holds several entries; their conditions need not be identical. Identical values can stand only once. Like-named read-outs stand apart in the source and are kept apart here.

Usually IC50 stands for the concentration needed to halve the response being measured. Usually Kd stands for a measure of binding affinity in units of concentration. A high value points to a looser complex.

As to `NS(=O)(=O)c1nc2ccccc2[nH]1` [x1168/x1231], the IC50 on FatA (AtFatA) [1] ([…] oleoyl-CoA, […] FatA, pH […], room temperature, active site (also dimer site), unreliable) is on record as greater than 250 µM.

For `Nc1cc(F)ccc1C(=O)O` [x1290], the “X-ray crystal structure, fragment soak” value at FatA (AtFatA) [2] is “x1290 and x1437 which share a similar chemical motif and are both bound”.

On to `O=C(O)c1sccc1-n1cccc1` [x1425], for which the IC50 on FatA (AtFatA) [1] was greater than 250 µM. For the compound `Cc1cccc(C(=O)O)c1N` [x1437], the “X-ray crystal structure, fragment soak” value on FatA (AtFatA) [2] is “x1290 and x1437 which share a similar chemical motif and are both bound”.

On to `Nc1ccc2oc(=O)ccc2c1` [x1463], for which, at FatA (AtFatA) [1], the IC50 was 142 µM.

With `CNC1CCN(c2ccccc2F)C1=O` (stereo not shown) [x1573], at FatA (AtFatA) [1], the IC50 is 29 µM. At FatA (AtFatA) [3], `CC(=O)N1CCSc2ccccc2C1` [x1816-FU1] came in with a Kd of roughly 0.09 µM. For the same compound, on FatA (AtFatA) [4], the Kd stood at 0.0741 µM, the kon stood at 463000 M⁻¹ s⁻¹ and the koff amounted to 0.0343 s⁻¹. In the case of `CC(=O)N1CCSc2ccccc2C1` [x1816-FU1_repeat], on FatA (AtFatA) [4], the “ka” value is 367000 M⁻¹ s⁻¹ and 305000 M⁻¹ s⁻¹; the “kd” value was 0.0326 s⁻¹ and 0.0293 s⁻¹. In the case of `CCC(=O)N1CCCc2ccccc2C1` [x1816-FU2], at FatA (AtFatA) [4], the Kd was found to be 0.156 µM, the “ka” value came out at 321361.600232 M⁻¹ s⁻¹ and the koff is 0.0502 s⁻¹. As for `CCC(=O)N1CCCc2ccccc2C1` [x1816-FU2_repeat], at FatA (AtFatA) [4], the “ka” value was 163000 M⁻¹ s⁻¹ and 124000 M⁻¹ s⁻¹; the “kd” value is 0.0811 s⁻¹ and 0.0645 s⁻¹.

For the compound `CCCC(=O)N1c2ccccc2CCC1C` (stereo not shown) [x1816-FU4], on FatA (AtFatA) [4], binding was characterised by a dissociation constant (Kd) of 1.16 µM, the kon came to 10100 M⁻¹ s⁻¹ and the koff amounted to 0.0117 s⁻¹. As for `CCCC(=O)N1c2ccccc2CCC1C` (stereo not shown) [x1816-FU4_repeat], on FatA (AtFatA) [4], the “ka” value was 12300 M⁻¹ s⁻¹ and 10600 M⁻¹ s⁻¹; the “kd” value is 0.0147 s⁻¹ and 0.0135 s⁻¹.

`CC(=O)N1c2ccccc2OCC1C` (stereo not shown) [x1816-FU5]: on FatA (AtFatA) [4], the Kd was 1.55 µM, the kon is 45000 M⁻¹ s⁻¹ and the koff came to 0.0695 s⁻¹. In the same order, the values of `CC(C)C(=O)N1c2ccccc2CCC1C` (stereo not shown) [x1816-FU6] are 1.63 µM, 13600 M⁻¹ s⁻¹ and 0.0222 s⁻¹. For `CCC(C)C(=O)N1c2ccccc2CCC1C` (stereo not shown) [x1816-FU7] the same measures were 1.96 µM, 4150 M⁻¹ s⁻¹ and 0.00811 s⁻¹. In the same order, the values of `CCC(=O)N1c2ccccc2CCC1C` (stereo not shown) [x1816-FU8] are 2.47 µM, 13900 M⁻¹ s⁻¹ and 0.0343 s⁻¹. Consider `CC(=O)N1CCCc2c(Cl)ccc(F)c21` [x1816-FU9], for which, on FatA (AtFatA) [4], the Kd was found to be 3.06 µM, the kon worked out at 59600 M⁻¹ s⁻¹ and the koff was 0.182 s⁻¹. In the same order, the values of `CC(=O)N1CCCc2cccc(F)c21` [x1816-FU10] are 3.1 µM, 50900 M⁻¹ s⁻¹ and 0.158 s⁻¹. For `CC(=O)N1CC(C)(CO)Cc2ccccc21` (stereo not shown) [x1816-FU11] the same measures were 3.13 µM, 8170 M⁻¹ s⁻¹ and 0.0256 s⁻¹. For `COCC(=O)N1c2ccccc2CCC1C` (stereo not shown) [x1816-FU12] the same measures were 4.42 µM, 20000 M⁻¹ s⁻¹ and 0.0885 s⁻¹.

As to `CC(C)CC(=O)N1c2ccccc2CCC1C` (stereo not shown) [x1816-FU13], on FatA (AtFatA) [4], the Kd is 8.7 µM, the kon came out at 8080 M⁻¹ s⁻¹ and the koff was 0.0703 s⁻¹. Turning to `CC1CCc2ccccc2N1C(=O)CC(C)(C)C` (stereo not shown) [x1816-FU14], on FatA (AtFatA) [4], the affinity, expressed as Kd, was 19.9 µM; the kon was 3010 M⁻¹ s⁻¹; the koff came out at 0.06 s⁻¹.

As to `COCC(=O)N1CC(C)(C)c2ccccc21` [x1816-FU42], the Kd on FatA (AtFatA) [5] is 57.7 µM. The same measure, in the same setting: to `CCC1CCc2ccccc2N1C(C)=O` (stereo not shown) [x1816-FU43] belongs 68.1 µM; to `CC1CCc2ccccc2N1C(=O)NC(C)(C)C` (stereo not shown) [x1816-FU44], 91.5 µM; to `CC(=O)N1CCC(C)c2ccccc21` (stereo not shown) [x1816-FU45], 93.8 µM. On FatA (AtFatA) [5], `CC(=O)N1c2ccccc2C(C)CC1(C)C` (stereo not shown) [x1816-FU54] displayed a Kd greater than 100 µM. Same read-out and setting: in the case of `CC(=O)N1CCN(C)c2ncccc21` [x1816-FU56] it was greater than 100 µM.

`CC(=O)N1CC(C)(C)c2ccccc21` [x1816-FU57] had a Kd at FatA (AtFatA) [5] greater than 100 µM.

Regarding `CC(=O)N1c2ccccc2C(C)(C)CC1C` (stereo not shown) [x1816-FU58], at FatA (AtFatA) [5], the Kd is greater than 100 µM.

For the compound `CC(=O)N1CCCc2cccnc21` [x1816-FU59], the Kd at FatA (AtFatA) [5] was greater than 100 µM. The same measure, in the same setting: in the case of `CC(=O)N1CCCc2ncccc21` [x1816-FU60] it was greater than 100 µM.

Take `O=C(Nc1ccccc1)N1CCCCCC1` [x1944*]: the IC50 on FatA (AtFatA) [1] was 43.9 µM. Still for that read-out and setting: in the case of `CNCC1COc2ccccc2O1` (stereo not shown) [x2004] it was 25.6 µM.
